ChEMBL document CHEMBL1201862, “PubChem BioAssay data set” (2004)
Calls of active or inactive are those of the source.

Legend:
cells [1] = format: functional, cell-based
[2] = target: T1, Nuclear receptor subfamily 0 group B member 1 (Homo sapiens, UniProt P51843); format: functional, cell-based;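 further: HEK293T cells transfected with SF-1 and DAX-1 plus StAR promoter luciferase reporter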
T1 sequence (P51843 whole entry): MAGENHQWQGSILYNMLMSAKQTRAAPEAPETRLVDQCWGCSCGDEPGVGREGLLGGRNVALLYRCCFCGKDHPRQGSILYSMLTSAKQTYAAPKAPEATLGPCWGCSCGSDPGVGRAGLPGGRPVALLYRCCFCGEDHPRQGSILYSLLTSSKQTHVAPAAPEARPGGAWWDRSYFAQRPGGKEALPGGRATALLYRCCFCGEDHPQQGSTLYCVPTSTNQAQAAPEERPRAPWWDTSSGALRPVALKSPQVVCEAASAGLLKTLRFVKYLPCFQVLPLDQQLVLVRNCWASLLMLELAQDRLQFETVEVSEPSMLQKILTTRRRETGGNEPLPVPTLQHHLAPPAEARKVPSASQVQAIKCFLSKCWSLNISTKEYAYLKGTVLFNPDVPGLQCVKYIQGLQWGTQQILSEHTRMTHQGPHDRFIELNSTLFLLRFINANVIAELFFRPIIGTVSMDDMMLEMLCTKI

Vero [3] = assay: viability loss in Vero cells – cell-based, plate reader, cherry-pick samples, cytotoxicity control, dose response (AID 687020); format: functional; conditions: Chlorocebus sabaeus
[4] = target: T2, Trace amine-associated receptor 1 (Homo sapiens, UniProt Q96RJ0); assay: Fluorescence-based cell-based high throughput dose response assay to identify agonists of the human trace amine associated receptor 1 (TAAR1).; format: functional
T2 sequence (Q96RJ0 whole entry): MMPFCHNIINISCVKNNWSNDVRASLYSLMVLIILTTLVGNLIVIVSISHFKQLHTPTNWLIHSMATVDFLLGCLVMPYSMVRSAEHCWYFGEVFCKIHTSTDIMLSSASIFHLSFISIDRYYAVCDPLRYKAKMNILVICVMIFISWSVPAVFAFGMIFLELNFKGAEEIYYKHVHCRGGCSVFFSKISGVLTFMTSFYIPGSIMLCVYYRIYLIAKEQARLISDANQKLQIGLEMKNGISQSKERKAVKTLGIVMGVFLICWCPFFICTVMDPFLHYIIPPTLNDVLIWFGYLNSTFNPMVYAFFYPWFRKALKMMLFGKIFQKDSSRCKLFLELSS

[5] = target: T2, Trace amine-associated receptor 1; assay: Counterscreen for agonists of the human trace amine associated receptor 1 (hTAAR1): Fluorescence-based cell-based high throughput dose response assay to identify hTAAR1 agonist that also desensitize TAAR1 receptor response.; format: functional
cells [6] = format: functional, cell-based; remark: listed apart in the source
cells [7] = format: functional, cell-based; remark: listed apart in the source
[8] = target: T3, Small ubiquitin-related modifier 1 (Homo sapiens, UniProt P63165); assay: SUMO1 protein-protein binding blockers, potency – biochemical, FRET, dose response (AID 624383); format: functional; conditions: read-out: IC50_Mean
[9] = Luminescence Cell-Based Dose Retest to Confirm Inhibitors of Cancer Stem Cells. [Related pubchem assays (depositor defined):AID2717, AID2721]; format: functional; conditions: Homo sapiens
[10] = target: T3, Small ubiquitin-related modifier 1; assay: SUMO1 protein interaction blockers, potency – biochemical, fluorescence polarization, uHTS hits, dose response (AID 624382); format: functional; conditions: read-out: IC50_Mean
[11] = target: T4, Sentrin-specific protease 1 (Homo sapiens, UniProt Q9P0U3); assay: Dose response confirmation of small molecule inhibitors of the catalytic domain of the SUMO protease, SENP1 in a FRET assay.; format: functional; conditions: read-out: IC50_Mean
T4 sequence (Q9P0U3 whole entry): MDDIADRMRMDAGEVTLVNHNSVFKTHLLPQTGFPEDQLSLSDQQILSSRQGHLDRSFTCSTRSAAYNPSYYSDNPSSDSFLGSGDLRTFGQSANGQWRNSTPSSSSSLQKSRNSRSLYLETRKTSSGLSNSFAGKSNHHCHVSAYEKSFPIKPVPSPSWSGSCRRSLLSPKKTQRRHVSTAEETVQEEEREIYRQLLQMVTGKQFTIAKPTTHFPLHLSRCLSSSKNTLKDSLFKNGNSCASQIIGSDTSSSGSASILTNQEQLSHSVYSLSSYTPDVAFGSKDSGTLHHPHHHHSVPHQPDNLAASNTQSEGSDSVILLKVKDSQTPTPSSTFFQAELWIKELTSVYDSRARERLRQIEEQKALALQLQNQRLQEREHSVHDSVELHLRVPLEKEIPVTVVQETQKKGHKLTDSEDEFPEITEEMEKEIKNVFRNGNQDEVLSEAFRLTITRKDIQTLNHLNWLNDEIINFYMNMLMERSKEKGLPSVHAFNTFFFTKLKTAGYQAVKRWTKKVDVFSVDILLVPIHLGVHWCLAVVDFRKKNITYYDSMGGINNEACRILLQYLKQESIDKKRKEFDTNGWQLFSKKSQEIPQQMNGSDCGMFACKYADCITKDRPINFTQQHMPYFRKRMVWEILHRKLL

Aminopeptidase N = target: T5, Aminopeptidase N (Plasmodium falciparum FcB1/Columbia, UniProt O96935); assay: malaria alanyl aminopeptidase activity blockers – biochemical, fluorogenic H-Leu-NHMec substrate, 1536-well (AID 1445); parameters: species or system Plasmodium falciparum 3D7, 3D7
T5 sequence (O96935 whole entry): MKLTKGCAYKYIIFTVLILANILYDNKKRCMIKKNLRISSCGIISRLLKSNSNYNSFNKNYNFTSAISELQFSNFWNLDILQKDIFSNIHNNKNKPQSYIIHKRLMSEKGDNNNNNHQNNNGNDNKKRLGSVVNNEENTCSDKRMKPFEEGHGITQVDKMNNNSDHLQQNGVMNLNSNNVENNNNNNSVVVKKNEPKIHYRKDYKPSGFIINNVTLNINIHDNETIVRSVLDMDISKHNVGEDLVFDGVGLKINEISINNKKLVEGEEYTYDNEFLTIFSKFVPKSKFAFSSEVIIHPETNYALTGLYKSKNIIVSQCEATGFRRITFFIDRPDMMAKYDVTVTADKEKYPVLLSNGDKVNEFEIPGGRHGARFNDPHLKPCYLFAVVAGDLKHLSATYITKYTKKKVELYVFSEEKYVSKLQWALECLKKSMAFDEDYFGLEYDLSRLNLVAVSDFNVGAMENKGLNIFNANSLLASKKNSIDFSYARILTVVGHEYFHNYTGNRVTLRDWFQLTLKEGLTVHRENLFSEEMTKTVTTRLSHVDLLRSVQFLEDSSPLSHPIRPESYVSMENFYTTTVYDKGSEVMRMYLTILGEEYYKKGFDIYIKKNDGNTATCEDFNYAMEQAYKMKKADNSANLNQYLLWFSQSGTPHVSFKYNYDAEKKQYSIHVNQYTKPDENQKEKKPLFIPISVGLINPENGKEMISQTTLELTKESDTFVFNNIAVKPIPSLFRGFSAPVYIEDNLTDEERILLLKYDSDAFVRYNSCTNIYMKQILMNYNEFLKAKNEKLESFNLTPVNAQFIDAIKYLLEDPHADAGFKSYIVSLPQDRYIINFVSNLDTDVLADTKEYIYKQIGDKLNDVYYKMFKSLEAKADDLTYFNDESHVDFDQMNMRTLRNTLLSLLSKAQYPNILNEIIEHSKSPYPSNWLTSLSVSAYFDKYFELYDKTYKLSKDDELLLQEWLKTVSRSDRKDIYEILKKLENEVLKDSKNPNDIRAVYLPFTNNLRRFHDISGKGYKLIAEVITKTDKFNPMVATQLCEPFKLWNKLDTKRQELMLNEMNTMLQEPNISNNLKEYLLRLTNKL

[12] = target: T4, Sentrin-specific protease 1; assay: SENP1 catalytic domain blockers, concentration series – biochemical, kinetic FRET, dose response (AID 651697); format: functional; conditions: read-out: IC50_Mean
Vero [13] = assay: cells; format: functional, cell-based; conditions: Chlorocebus sabaeus
[14] = target: T6, Rac GTPase-activating protein 1 (Homo sapiens, UniProt Q9H0H5); assay: blockers of MgcRacGAP-driven Rac1 GTP hydrolysis – biochemical, ADP Hunter fluorescence, primary and confirmatory, confirmation (AID 624330); format: functional
T6 sequence (Q9H0H5 whole entry): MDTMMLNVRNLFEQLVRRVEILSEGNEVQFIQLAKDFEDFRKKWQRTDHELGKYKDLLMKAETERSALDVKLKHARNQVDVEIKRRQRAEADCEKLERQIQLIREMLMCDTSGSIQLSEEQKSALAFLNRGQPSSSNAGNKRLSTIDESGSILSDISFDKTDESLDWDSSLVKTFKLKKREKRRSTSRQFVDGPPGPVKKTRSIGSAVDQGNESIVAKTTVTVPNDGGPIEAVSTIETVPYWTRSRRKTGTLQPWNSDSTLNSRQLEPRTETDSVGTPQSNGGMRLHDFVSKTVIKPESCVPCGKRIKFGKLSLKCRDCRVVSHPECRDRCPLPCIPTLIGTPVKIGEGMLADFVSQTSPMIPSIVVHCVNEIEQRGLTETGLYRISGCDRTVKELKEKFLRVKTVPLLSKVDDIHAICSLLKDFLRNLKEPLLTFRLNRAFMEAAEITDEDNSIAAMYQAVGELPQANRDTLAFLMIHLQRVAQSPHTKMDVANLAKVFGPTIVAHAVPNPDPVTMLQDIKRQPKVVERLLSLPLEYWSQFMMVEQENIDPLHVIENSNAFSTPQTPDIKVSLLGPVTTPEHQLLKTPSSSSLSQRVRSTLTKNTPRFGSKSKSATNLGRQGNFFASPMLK

[15] = viability loss in HeLa cells – cytotoxicity control for MgcRacGAP inhibitor project, dose response (AID 624300); format: functional
[16] = target: SWI/SNF-related matrix-associated actin-dependent regulator of chromatin subfamily A member 2 (Homo sapiens, UniProt P51531); assay: Luminescence-based cell-based high throughput dose response assay to identify activators of the function of SWI/SNF related, matrix associated, actin dependent regulator of chromatin, subfamily a, member 2 (SMARCA2, BRM).; format: functional
[17] = target: T7, DNA repair protein RAD52 homolog (Homo sapiens, UniProt P43351); format: functional, biochemical
T7 sequence (P43351 whole entry): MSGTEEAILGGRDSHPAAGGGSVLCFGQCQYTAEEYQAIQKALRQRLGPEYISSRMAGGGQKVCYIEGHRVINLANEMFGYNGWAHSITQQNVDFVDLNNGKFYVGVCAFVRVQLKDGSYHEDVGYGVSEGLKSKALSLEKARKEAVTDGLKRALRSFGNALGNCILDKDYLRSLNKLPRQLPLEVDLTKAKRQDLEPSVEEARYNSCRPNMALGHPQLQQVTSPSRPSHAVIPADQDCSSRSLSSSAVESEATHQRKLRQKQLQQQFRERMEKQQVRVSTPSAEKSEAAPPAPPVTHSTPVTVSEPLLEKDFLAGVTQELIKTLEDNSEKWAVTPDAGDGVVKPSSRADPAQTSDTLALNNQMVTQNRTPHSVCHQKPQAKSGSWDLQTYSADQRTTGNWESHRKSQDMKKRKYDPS

[18] = Counterscreen for activators of the function of SWI/SNF related, matrix associated, actin dependent regulator of chromatin, subfamily a, member 2 (SMARCA2, BRM): Luminescence-based cell-based high throughput dose response assay to identify non-selective compounds using the VP16 reporter assay.; format: functional
Streptokinase A = target: T8, Streptokinase A (Streptococcus pyogenes serotype M1, UniProt P10520); assay: viability-normalized secreted streptokinase activity reduction – plasminogen activation absorbance, OD405, dose response (AID 1914); format: functional, Streptococcus pyogenes M1 GAS;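 further: secreted streptokinase activity via plasminogen activation per viability signal from cell pellet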
T8 sequence (P10520 whole entry): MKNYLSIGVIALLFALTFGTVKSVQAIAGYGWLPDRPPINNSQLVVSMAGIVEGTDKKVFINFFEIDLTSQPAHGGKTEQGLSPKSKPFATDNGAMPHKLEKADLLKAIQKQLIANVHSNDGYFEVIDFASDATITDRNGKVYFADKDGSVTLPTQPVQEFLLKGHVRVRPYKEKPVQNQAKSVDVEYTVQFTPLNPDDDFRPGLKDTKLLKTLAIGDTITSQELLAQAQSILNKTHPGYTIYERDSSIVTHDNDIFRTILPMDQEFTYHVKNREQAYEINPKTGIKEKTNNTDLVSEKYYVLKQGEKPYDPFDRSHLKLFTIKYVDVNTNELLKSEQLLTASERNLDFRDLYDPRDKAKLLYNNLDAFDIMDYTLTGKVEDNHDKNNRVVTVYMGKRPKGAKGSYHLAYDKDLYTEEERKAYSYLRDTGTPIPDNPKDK

Streptococcus = assay: GAS UMAA2166 growth inhibition – luminescence, BacTiterGlo, counter-screen for streptokinase expression inhibitor project, dose response (AID 1915); format: functional, organism-based;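 further: potency for reduction of bacterial viability or growth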

T3 sequence (P63165 whole entry): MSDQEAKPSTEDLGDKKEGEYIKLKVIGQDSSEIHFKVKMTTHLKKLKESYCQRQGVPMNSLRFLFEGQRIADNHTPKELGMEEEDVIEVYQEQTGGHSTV
SWI/SNF-related matrix-associated actin-dependent regulator of chromatin subfamily A member 2, sequence (P51531 whole entry): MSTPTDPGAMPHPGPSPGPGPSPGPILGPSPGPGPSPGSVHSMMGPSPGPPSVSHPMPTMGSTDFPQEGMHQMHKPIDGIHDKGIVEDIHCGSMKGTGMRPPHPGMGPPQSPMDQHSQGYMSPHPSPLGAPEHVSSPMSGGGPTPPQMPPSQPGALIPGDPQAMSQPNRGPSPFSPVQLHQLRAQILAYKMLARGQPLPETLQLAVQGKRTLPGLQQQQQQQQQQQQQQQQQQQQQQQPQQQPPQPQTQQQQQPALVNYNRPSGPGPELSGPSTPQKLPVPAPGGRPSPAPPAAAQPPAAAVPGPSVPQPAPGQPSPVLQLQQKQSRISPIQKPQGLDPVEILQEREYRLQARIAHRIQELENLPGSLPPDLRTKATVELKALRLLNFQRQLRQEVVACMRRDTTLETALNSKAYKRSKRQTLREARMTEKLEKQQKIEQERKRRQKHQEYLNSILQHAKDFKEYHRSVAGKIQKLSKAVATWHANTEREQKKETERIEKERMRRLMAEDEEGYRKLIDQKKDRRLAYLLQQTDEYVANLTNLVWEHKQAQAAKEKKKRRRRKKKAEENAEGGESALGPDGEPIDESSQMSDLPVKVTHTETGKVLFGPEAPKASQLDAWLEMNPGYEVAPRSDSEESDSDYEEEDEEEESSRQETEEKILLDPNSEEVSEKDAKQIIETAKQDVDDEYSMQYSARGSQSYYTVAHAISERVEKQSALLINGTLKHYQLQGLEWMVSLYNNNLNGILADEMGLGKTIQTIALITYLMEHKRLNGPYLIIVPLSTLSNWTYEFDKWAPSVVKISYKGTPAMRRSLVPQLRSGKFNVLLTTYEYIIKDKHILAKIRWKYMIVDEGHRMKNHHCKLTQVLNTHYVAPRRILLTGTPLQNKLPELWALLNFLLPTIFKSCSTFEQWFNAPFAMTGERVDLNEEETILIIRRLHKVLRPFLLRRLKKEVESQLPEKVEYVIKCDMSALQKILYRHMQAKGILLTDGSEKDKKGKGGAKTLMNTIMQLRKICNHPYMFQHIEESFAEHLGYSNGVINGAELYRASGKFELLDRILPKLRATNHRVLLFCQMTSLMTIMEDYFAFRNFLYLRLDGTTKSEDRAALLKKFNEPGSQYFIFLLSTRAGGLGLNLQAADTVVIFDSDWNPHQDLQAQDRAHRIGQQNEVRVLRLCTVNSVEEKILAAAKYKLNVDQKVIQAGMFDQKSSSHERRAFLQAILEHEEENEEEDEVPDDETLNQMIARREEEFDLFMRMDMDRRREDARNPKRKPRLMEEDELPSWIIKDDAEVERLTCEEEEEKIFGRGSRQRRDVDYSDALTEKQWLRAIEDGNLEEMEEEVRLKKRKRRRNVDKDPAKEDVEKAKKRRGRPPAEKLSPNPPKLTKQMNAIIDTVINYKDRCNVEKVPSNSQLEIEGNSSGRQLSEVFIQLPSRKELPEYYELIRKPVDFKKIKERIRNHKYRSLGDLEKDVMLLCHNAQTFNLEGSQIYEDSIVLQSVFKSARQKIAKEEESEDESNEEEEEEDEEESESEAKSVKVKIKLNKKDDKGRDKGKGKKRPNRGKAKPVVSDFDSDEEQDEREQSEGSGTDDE

## CN(C(=O)C1CCC(=O)N(Cc2cccc(F)c2)C1)C1CCCCC1 (stereo not drawn)
Cells [1]
  IC50: > 67.6 µM (inactive)
[2]
  IC50: > 67.6 µM (inactive)

## CCOc1ccccc1-c1nnc(CS(=O)(=O)c2ccccc2)o1
Vero [3]
  AC50: 23.9 µM (active)

## COc1cccc(N2CN(CCc3ccccc3)CN=C2S)c1
[4]
  EC50: 0.758 µM (active)
[5]
  IC50: 3.52 µM (active)
Cells [6]
  IC50: > 29.9 µM (inactive)
Cells [7]
  EC50: > 29.9 µM (inactive)

## O=C(C[C@H]1C(=O)N(Cc2ccccc2)C[C@@H]1Cc1ccccc1)Nc1ccc(Br)cc1
Vero [3]
  AC50: 31.4 µM (active)

## O=C(O)c1cccc(S(=O)(=O)NNc2ccccc2C(F)(F)F)c1
[8]
  IC50: 9.06 µM (active)
[9]
  AC50: 10.8 µM (active)
[10]
  IC50: > 66.6 µM (inactive)

## O=C(N/N=C(\CC(=O)c1cccs1)C(F)(F)F)c1ccncc1
[11]
  IC50: 10.1 µM (active)
Aminopeptidase N
  IC50: 48.8 µM (active)
[12]
  IC50: 38 µM (inactive)
Vero [13]
  IC50: 24.8 µM (active)

## Cc1cc(C)c2nc(NC(=O)c3ccco3)sc2c1
Cells [1]
  IC50: > 67.5 µM (inactive)
[2]
  IC50: > 0.278 µM (active)

## Fc1ccc(CNc2ccc(N3CCN(Cc4ccccc4)CC3)cc2)cc1
[14]
  IC50: 15.4 µM (active)
[15]
  CC50: 98.7 µM (active)

## COc1ccc(-c2nc3c(C(=O)NCCN(C)C)cccc3c3ccccc23)cc1
[16]
  EC50: > 91.2 µM (inactive)
[17]
  AC50: 2.89 µM (active)
[18]
  EC50: > 91.2 µM (inactive)

## Cn1ccc(C(=O)N/N=C/c2c[nH]c3ccccc23)n1
[16]
  EC50: > 91.2 µM (inactive)
[18]
  EC50: > 91.2 µM (inactive)

## O=C(Nc1cccc(-c2nc3ccccc3[nH]2)c1)c1ccc(C(=O)Nc2cccc(-c3nc4ccccc4[nH]3)c2)cc1
[8]
  IC50: 6.29 µM (active)
Streptokinase A
  EC50: > 150 µM (not active)
[10]
  IC50: > 66.6 µM (inactive)
Streptococcus
  EC50: 61.9 µM (active)
